The source of these data is PubChem BioAssay (NCI).

The structures appear in SMILES notation. Where “and” joins values, the source holds several entries; their conditions need not be identical. Equal values may be shown once.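 Values below derive from 48-hour exposures of cells grown in 96-well plates, with endpoints linearly interpolated between the two concentrations bracketing the appropriate inhibition level. GI50: concentration for 50% inhibition of growth. The concentration for full growth arrest is given as TGI.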

Some test systems named below: EKVX NSCLC; HS 578T breast; HT29 colon; HCT-15 colon; A498 renal; SK-MEL-5 melanoma; MDA-MB-435; HL-60(TB) leukemia; SK-OV-3 ovarian; ACHN renal.
Experiment in all cases: NCI anticancer screen, dose series, 48 h

As for `O=C1C(Sc2ccc3ccccc3c2)=C(Sc2ccc3ccccc3c2)C(=O)c2ccccc21`, the TGI with EKVX NSCLC is 23.8 µM; with HS 578T breast, 62.3 µM; with HT29 colon, 29 µM; in the assay on HCT-15 colon, 23.5 µM; in the assay with A498 renal it was 33.4 µM; in the assay with SK-MEL-5 melanoma it was 12.4 µM. Moreover, the TGI was 31.5 µM in the assay on MDA-MB-435, 11.2 µM with HL-60(TB) leukemia, 68.2 µM in the assay with SK-OV-3 ovarian and 17.3 µM in the assay with ACHN renal.
On to `N#Cc1cc2c(cc1Cl)Sc1nnc(Nc3cccc4ccccc34)n1S2(=O)=O`, for which the GI50 with EKVX NSCLC is 20.2 µM; with HS 578T breast, 2.89 µM; with HT29 colon, 3.96 µM; in the assay with HCT-15 colon it was 4.74 µM; with A498 renal, 17.5 µM; with SK-MEL-5 melanoma, 3.95 µM. For the same molecule, the GI50 in the assay with MDA-MB-435 is 4.35 µM; in the assay on HL-60(TB) leukemia, 2.75 µM; in the assay with SK-OV-3 ovarian it was 17.4 µM; in the assay on ACHN renal, 6.34 µM. In addition, the TGI amounted to 39.6 µM in the assay with EKVX NSCLC; 9.74 µM in the assay with HS 578T breast; 12.7 µM with HT29 colon; 24.4 µM with HCT-15 colon; 31.7 µM in the assay with A498 renal; 15.7 µM with SK-MEL-5 melanoma. In addition, the TGI in the assay on MDA-MB-435 stood at 16.4 µM; in the assay on HL-60(TB) leukemia, 20.2 µM; with SK-OV-3 ovarian, 35.1 µM; with ACHN renal, 19.2 µM.
For the molecule `COC1=C(OC)C(=O)C(CCCCCCCCCCO)=C(C)C1=O`, the GI50 in the assay on EKVX NSCLC is 5.89 µM; in the assay on HS 578T breast, 18.3 µM; in the assay on HT29 colon it was 14.5 µM; in the assay on HCT-15 colon, 8.81 µM; with A498 renal it was 13.1 µM; in the assay with SK-MEL-5 melanoma it was 5.92 µM. Besides, the GI50 in the assay on MDA-MB-435 is 1.89 µM; in the assay with HL-60(TB) leukemia, 3.71 µM; with SK-OV-3 ovarian it was 15.7 µM; in the assay on ACHN renal it was 3.35 µM. For the same molecule, the TGI in the assay on EKVX NSCLC was 21.8 µM; in the assay with HS 578T breast it was > 100 µM; with HT29 colon, 31.6 µM; in the assay with HCT-15 colon, 24.5 µM; with A498 renal, 26.6 µM; with SK-MEL-5 melanoma it was 19.1 µM. Moreover, the TGI was 3.9 µM with MDA-MB-435, 11.5 µM in the assay on HL-60(TB) leukemia, 29.2 µM in the assay on SK-OV-3 ovarian and 11.2 µM in the assay with ACHN renal.
`CC1(C)[C@H](O)[C@H](F)C[C@@]2(C)Oc3ccc(C(=O)Nc4ccc5c(c4)NC(=O)C54CCN(CCCCC#N)CC4)cc3C[C@H]12`: the GI50 in the assay on EKVX NSCLC is 4.01 µM and 4.25 µM; in the assay with HS 578T breast, 0.00265 µM; in the assay with HT29 colon, 1.8 µM and 1.69 µM; in the assay with HCT-15 colon, 5.43 µM and 1.59 µM; in the assay on A498 renal, 0.0341 µM; in the assay with MDA-MB-435 it was 0.09 µM and 0.0946 µM. In addition, the GI50 in the assay with HL-60(TB) leukemia is 0.0583 µM; with SK-OV-3 ovarian it was 2.1 µM and 0.341 µM; in the assay with ACHN renal, 0.961 µM and 5.29 µM. In addition, the TGI in the assay with EKVX NSCLC is 22.1 µM; in the assay with HS 578T breast it was 0.035 µM and 0.0352 µM; with HT29 colon, 6.73 µM; with HCT-15 colon, 19.1 µM; in the assay on A498 renal, 0.548 µM; with SK-MEL-5 melanoma it was 2.9 µM and 1.55 µM. In addition, the TGI with MDA-MB-435 is 1.83 µM and 2.94 µM; with HL-60(TB) leukemia it was 6.04 µM; in the assay on SK-OV-3 ovarian, 3.54 µM; in the assay with ACHN renal, 23.2 µM.
In the case of `Nc1nc(-c2ccc(Cl)cc2)nc2c1sc(=S)n2-c1ccccc1`, the GI50 with EKVX NSCLC is 2.75 µM; in the assay on HS 578T breast, 3.31 µM; with HT29 colon it was 6.09 µM; with HCT-15 colon it was 4.92 µM; in the assay on A498 renal, 1.92 µM; in the assay on SK-MEL-5 melanoma it was 2.91 µM. Besides, the GI50 is 6.65 µM with MDA-MB-435, > 100 µM with HL-60(TB) leukemia, 3.83 µM in the assay with SK-OV-3 ovarian and 1.83 µM in the assay with ACHN renal. Besides, the TGI in the assay on EKVX NSCLC was 14.7 µM; in the assay with HS 578T breast, 9.39 µM; in the assay with HT29 colon it was > 100 µM; in the assay with HCT-15 colon, > 100 µM; in the assay on A498 renal it was 5.19 µM; in the assay with SK-MEL-5 melanoma it was 10.1 µM. Further, the TGI in the assay with MDA-MB-435 was > 100 µM; in the assay on HL-60(TB) leukemia, > 100 µM; in the assay on SK-OV-3 ovarian, 14.5 µM; in the assay with ACHN renal it was 3.82 µM.
Take `COc1cc(-c2ncn(/C=C\c3nnco3)n2)cc(C(F)(F)F)c1`: the GI50 is 4.66 µM in the assay with EKVX NSCLC; 0.488 µM in the assay on HS 578T breast; 0.191 µM in the assay with HT29 colon; 0.282 µM with HCT-15 colon; 0.0421 µM with A498 renal; 0.411 µM in the assay with SK-MEL-5 melanoma. Besides, the GI50 was 0.0894 µM with MDA-MB-435, 0.0809 µM in the assay on HL-60(TB) leukemia, 0.979 µM in the assay with SK-OV-3 ovarian and 0.318 µM in the assay on ACHN renal. The TGI in the assay on EKVX NSCLC was > 100 µM; in the assay on HS 578T breast, > 100 µM; in the assay with HT29 colon, 50.8 µM; with HCT-15 colon it was > 100 µM; in the assay on A498 renal it was 0.619 µM; in the assay on SK-MEL-5 melanoma, 4.39 µM. The TGI is 3.33 µM with MDA-MB-435, 13.1 µM with HL-60(TB) leukemia, > 100 µM with SK-OV-3 ovarian and > 100 µM in the assay on ACHN renal.
